# “Also recorded” adds a separate entry of the source.
# Legend:
# [1] = tested on: MDA-CDDP-S4 human Cisplatin-resistant breast adenocarcinoma cells; assay: MDA-CDDP-S4 Cisplatin-resistant breast adenocarcinoma, fat pad injection in SCID mice; assay type: in vivo; conditions: for Tumour weight as % of saline control: MDA-CDDP-S4 (breast), Cisplatin resistance, SCID
# Description: MDA-CDDP-S4 human in vivo-selected Cisplatin-resistant breast adenocarcinoma cells (4×10^6 cells in 100 μl of PBS) were injected into the fat pad (inside of right leg) of 6-7 weeks old female SCID mice. After the size of tumour reached an approximate volume of 100 mm^3, 7 days post tumour cell injection, SEQ ID NO:1 was administered by bolus infusion into the tail vein every other day at 10 mg/kg 9 times. Control animals received saline alone for the same period. Antitumour effect of SEQ ID NO: 1 was further compared to that of Cisplatin or Taxol alone. Cisplatin was adminstered intravenously once a week for three weeks at a dose of 4 mg/kg. Taxol was administered intravenously once a week for three weeks at a dose of 10 mg/kg. Antitumour activities were estimated by the inhibition of tumour volume, which was measured with caliper. Each point represents mean tumour volume calculated from 10 animals per experimental group. […] As expected, treatment with Cisplatin during the same period was ineffective against Cisplatin-resistant tumour.
# MDA-CDDP-S4 human in vivo-selected Cisplatin-resistant breast adenocarcinoma cells (4×10^6 cells in 100 μl of PBS) were injected into the fat pad (inside of right leg) of 6-7 weeks old female CB-17 SCID mice. After the size of tumour reached an approximate volume of 100 mm^3, 9 days post tumour cell injection, SEQ ID NO:1 was administered by bolus infusion into the tail vein every other day at 10 mg/kg. Control animals received saline alone for the same period. Antitumour effect of SEQ ID NO:1 was further compared to that of Taxol alone and in combination. Taxol was administered i.p. once a week at a dose of 10 mg/kg. Antitumour activities were estimated by the inhibition of tumour volume FIG. 22A), which was measured with calipers. Each point represents mean tumour volume calculated from 10 animals per experimental group. Animals were sacrificed and tumour weights taken at the end of the study (FIG. 22C). […] This study was repeated with similar results (FIG. 22B).
# [2] = tested on: HT-29 human colon cancer cells; assay: HT-29 colon tumour xenograft in CD-1 nude mice; assay type: in vivo
# Description: HT-29 human colon cancer cells (3×10^6 cells in 100 μl of PBS) were subcutaneously injected into the right flank of 6-7 weeks old female CD-1 nude mice. After the size of tumour reached an approximate volume of 50 mm^3, 4 days post tumour cell injection, mitomycin C was administered by bolus infusion into the tail vein at days 4, 11 and 18 with a dose of 3.5 mg/kg/week. Antitumour effect of mitomycin C was further compared to that of SEQ ID NO:1 in combination with mitomycin C. SEQ ID NO:1 was administered by bolus infusion into the tail vein every day at 6 mg/kg and mitomycin C was administered intravenously at days 4, 11 and 18 with a dose of 3.5 mg/kg/week, one hour after the treatments with SEQ ID NO:1. Control animals received saline alone for the same period as SEQ ID NO:1. All treatments were stopped at day 22. A day after the last treatment, tumours were excised from the animals and their weights were measured.
# HT-29 human colon cancer cells (3×10^6 cells in 100 μl of PBS) were subcutaneously injected into the right flank of 5-6 week old female CD-1 nude mice. After the size of tumour reached an approximate volume of 100 mm^3, 7 days post tumour cell injection, SEQ ID NO:1 was administered by bolus infusion into the tail vein every other day at 10 mg/kg. Control animals received saline alone for the same period. Antitumour effect of SEQ ID NO:1 was further compared to that of CPT-11 alone or that of SEQ ID NO:1 in combination with CPT-11. CPT-11 was administered intraperitoneally for 5 days in a row from […] with a dose of 20 mg/kg in 100 μl saline. All treatments were stopped at day 32. A day after the last treatment, tumours were excised from the animals and their weights were measured.
# HT-29 human colon cancer cells (3×10^6 cells in 100 μl of PBS) were subcutaneously injected into the right flank of 6-7 week old female CD-1 nude mice. Treatments started at day 5 post tumour cell injection, SEQ ID NO:1 and 5-FU were administered as outlined below: • Groups and treatment: • Group 1. Saline treated group: saline:0.1 ml/2 days, i.v.; • Group 2. SEQ ID NO:1 treated group: 10 mg/kg/2 days in 100 μL saline, i.v.; • Group 3. 5-FU treated group:13 mg/kg/5 days/week (one week on and one week off), i.v.; • Group 4. SEQ ID NO:1 plus 5-FU treated group.
# HT-29 human colon cancer cells (3×10^6 cells in 100 μl of PBS) were subcutaneously injected into the right flank of 5-6 week old female CD-1 nude mice. Treatments started 4 days post tumour cell injection, SEQ ID NO: 1 and Capecitabine were administered as outlined below: • Group and Treatment: • Group 1: treated with 0.2 ml vehicle solution for capecitabine, o.p.; • Group 2: treated with 0.1 ml saline, i.v.; • Group 3: treated with 359 mg/kg/day×5/w Capecitabine in 0.2 ml vehicle solution, o.p.; • Group 4: treated with 10 mg/kg/2 days SEQ ID NO:1 in 0.1 ml saline i.v.; • Group 5: treated with 10 mg/kg/2 days SEQ ID NO:1 in 0.1 ml saline, i.v. plus 359 mg/kg/day×5/w capecitabine in 0.2 ml vehicle solution, o.p.
sequence,measurement,setting,value
"GGCTAAATCGCTCCACCAAG (chemistry not given here) [SEQ ID NO: 1, antisense oligonucleotide that hybridizes to the coding region of human ribonucleotide reductase R2 mRNA]",antitumour effect (tumour volume),"[1]; Example 13.3, SEQ ID NO:1 10 mg/kg 9 times, Cisplatin 4 mg/kg, Taxol 10 mg/kg i.v. weekly for three weeks",significant reduction of tumour weight
same,"antitumour effect (tumour volume, tumour weight)","[1]; Example 13.4, CB-17 SCID mice, SEQ ID NO:1 10 mg/kg every other day, Taxol 10 mg/kg i.p. weekly",significant reduction of tumour weight; also recorded: superior to the inhibitory effects observed with Taxol
same,Tumour weight as % of saline control,"[1]; Taxol combination study, first of two value columns",18%
same,Tumour weight as % of saline control,"[1]; Taxol combination study, second of two value columns",41%
same,Tumour weight as % of saline control,[1]; study with Taxol and Cisplatin alone,32%
same,antitumour effect (tumour weight),"[2]; Example 12.2, SEQ ID NO:1 10 mg/kg every other day i.v., CPT-11 20 mg/kg i.p. 5 days",significant delay of tumour growth; also recorded: superior to the inhibitory effects observed with CPT-11 alone
same,Tumour weight as % of saline control,"[2]; HT-29 (colon), Mouse CD-1, CPT-11 study",19%
